Data from PubChem BioAssay AID732 (Emory University Molecular Libraries Screening Center, 2007).
Values joined by “and” are separate entries in the source; they are usually repeats but may differ in a detail not shown here. Equal values may be shown once. Active and inactive are the calls of the source. How the calls were made is not given here.

test system: in vivo angiogenesis, blood vessel count; test: reduction of blood vessel formation in vivo – HTS, in vivo study (AID 732); details: stronger effect = lower value;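 tested at 30 µM in the well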;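 further: zebrafish embryos dosed at one day post fertilization; 0% = reference inhibitor and 100% = plate mean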

Structure (SMILES) | vessel count % control
Nc1nc(Cl)nc2c1ncn2[C@@H]1O[C@H](COP(=O)(O)OP(=O)(O)OP(=O)(O)O)[C@H](O)C1O (some centres not stated) | 107% (inactive)
CC1CCN=C(N)S1 (configuration not stated) | 92% (inactive)
NCCCCN=C(N)N | 106% (inactive)
CCCn1c(=O)c2c(ncn2C)n(CCC)c1=O | 98.7% (inactive)
COc1ccc2c(c1)CCC1C2CC[C@@]2(C)C1CC[C@@H]2NCCCCCCN1C(=O)C=CC1=O (some centres not stated) | 0% (inactive)
C[N+]1(C)C2CC(OC(=O)[C@H](CO)c3ccccc3)CC1C1OC12 (some centres not stated) | 105% (inactive) and 146% (inactive)
O=C(Nc1cccc(C(=O)Nc2ccc(S(=O)(=O)O)c3cc(S(=O)(=O)O)cc(S(=O)(=O)O)c23)c1)Nc1cccc(C(=O)Nc2ccc(S(=O)(=O)O)c3cc(S(=O)(=O)O)cc(S(=O)(=O)O)c23)c1 | 88.2% (inactive)
NCCc1ccc(O)c(O)c1 | 91.6% (inactive)
Nc1ccc(S(=O)(=O)Nc2ccnn2-c2ccccc2)cc1 | 122% (inactive)
C#CCN(C)Cc1ccccc1 | 91.4% (inactive)
O=C(O)c1cc2cc(Cc3cccnc3)ccc2o1 | 100% (inactive)
NC(=NCCC[C@H](N)C(=O)O)N[N+](=O)[O-] | 96.2% (inactive)
CC(=O)c1c(O)c(C)c(O)c(Cc2c(O)c3c(c(C(=O)/C=C/c4ccccc4)c2O)OC(C)(C)C=C3)c1O | 0% (inactive)
O=C1C(c2c(O)[nH]c3ccc(F)cc23)=Nc2ccccc21 | 59% (inactive)
Cc1c(OCC(F)(F)F)ccnc1CS(=O)c1nc2ccccc2[nH]1 (configuration not stated) | 76.7% (inactive)
COc1cc(C=C(C#N)C#N)cc(O)c1O | 114% (inactive)
CC[N+](CC)(CC)CC(=O)Nc1c(C)cccc1C | 85.1% (inactive)
CCCc1c(-c2ccc(O)cc2)nn(-c2ccc(O)cc2)c1-c1ccc(O)cc1 | 106% (inactive)
NCCc1ccc(S(=O)(=O)F)cc1 | 87.5% (inactive)
CN1C2CCC1CC(OC(=O)c1cc(Cl)cc(Cl)c1)C2 (configuration not stated) | 77% (inactive)
O=c1onc2n1-c1cc(Br)ccc1OC2 | 95.9% (inactive)
O=c1c(O)c(-c2ccc(O)c(O)c2)oc2cc(O)cc(O)c12 | 115% (inactive)
CCn1cc(C(=O)O)c(=O)c2cc3c(cc21)OCO3 | 121% (inactive)
CCCCC#Cc1nc(N)c2ncn([C@@H]3O[C@H](C(=O)NCC)[C@@H](O)[C@H]3O)c2n1 | 110% (inactive)
CSc1ccc(C(=O)c2[nH]c(=O)[nH]c2C)cc1 | 76.7% (inactive)

Structure (SMILES) | vessel count % control
Cn1cnc2c1c(=O)[nH]c(=O)n2C | 118% (inactive)
CC(C)NP(=O)(NC(C)C)OP(=O)(NC(C)C)NC(C)C | 117% (inactive)
COc1ccc(NC(=O)/C=C/c2ccc(Cl)cc2)cc1 | 106% (inactive)
NC(=S)NCCCC(N)C(=O)O (configuration not stated) | 119% (inactive)
N[C@@H](Cc1c[nH]c2ccc(O)cc12)C(=O)O | 81.8% (inactive)
COc1cc(CCN)ccc1O | 124% (inactive)
O=C(O)CCCc1ccc(N(CCCl)CCCl)cc1 | 118% (inactive)
NC(CP(=O)(O)O)C(=O)O (configuration not stated) | 103% (inactive)
C[C@]12CCC3C(CC[C@H]4C[C@H](O)CC[C@]34C)C1CC[C@@H]2C(=O)CO (some centres not stated) | 105% (inactive)
COc1ccc([C@@H]2Sc3ccccc3N(CCN(C)C)C(=O)[C@@H]2OC(C)=O)cc1 | 107% (inactive)
COc1ccc2c(c1)c(CC(=O)N1CCOCC1)c(C)n2C(=O)c1ccc(Cl)cc1 | 55% (inactive)
COc1ccccc1CNCCCCCCNCCCCCCCCNCCCCCCNCc1ccccc1OC | 113% (inactive)
CC(N)(C(=O)O)c1ccc(C(=O)O)cc1 (configuration not stated) | 93.5% (inactive)
Nc1c2c(nc3ccccc13)CCCC2 | 91.9% (inactive)
COC(=O)[C@H]1[C@H]2C[C@@H]3c4[nH]c5cc(OC)ccc5c4CCN3C[C@H]2C[C@@H](OC(=O)c2cc(OC)c(OC)c(OC)c2)[C@@H]1OC | 75.8% (inactive)
Nc1nc(N)c2nc(-c3ccccc3)c(N)nc2n1 | 109% (inactive)
CCCCCCCCCCCCCCCC(=O)NCCO | 96.1% (inactive)
COc1cc(C(O)CN)ccc1O (configuration not stated) | 83.3% (inactive)
N#CC(C#N)=Cc1ccc([N+](=O)[O-])c(O)c1 | 88.6% (inactive)
NCCC1CCCC(CCN)N1 (configuration not stated) | 115% (inactive)
NC(=O)C1=CN(C2OC(COP(=O)(O)OP(=O)(O)OC[C@H]3O[C@@H](n4cnc5c(N)ncnc54)C(OP(=O)(O)O)[C@H]3O)C(O)C2O)C=CC1 (some centres not stated) | 101% (inactive)
N#CC(C#N)=Cc1cc(O)c(O)c(O)c1 | 107% (inactive)
Cc1ncc(CNC(=O)N(CCCl)N=O)c(N)n1 | 90.1% (inactive)
CC(C)(C)NCC(O)COc1nsnc1N1CCOCC1 (configuration not stated) | 101% (inactive)
C[C@@]1(C2CCCC2)Cc2cc(OCC(=O)O)c(Cl)c(Cl)c2C1=O | 75.4% (inactive)

Structure (SMILES) | vessel count % control
COC[C@H]1OC(=O)c2coc3c2[C@@]1(C)C1=C(C3=O)C2CCC(=O)[C@@]2(C)C[C@H]1OC(C)=O (some centres not stated) | 0% (inactive)
O=c1[nH]c(=O)c2nc3ccccc3nc2[nH]1 | 129% (inactive)
N#CC(=Cc1ccc(O)c(O)c1)C(N)=S | 118% (inactive)
CCCCNC(=O)NS(=O)(=O)c1ccc(C)cc1 | 87.6% (inactive)
Nc1nc2ccc(Cl)cc2c2nc(-c3ccco3)nn12 | 95.7% (inactive)
C[C@]12CC[C@H]3[C@@H](CCC4C[C@H](O)CC[C@@]43C)[C@@H]1CC[C@@H]2O (some centres not stated) | 106% (inactive)
Clc1ccc(N2CCN(Cc3c[nH]c4ncccc34)CC2)cc1 | 83.7% (inactive)
C=CCN1CCC2(C)c3cc(O)ccc3CC1[C@@H]2C (some centres not stated) | 89.5% (inactive)
CC[C@@H](CO)NC(=O)[C@@H]1C=C2c3cccc4c3c(cn4C)C[C@H]2N(C)C1 | 70.9% (inactive)
COc1ccc2c3c1O[C@H]1C(=O)CC[C@@]4(O)C(C2)N(CC2CC2)CCC314 (some centres not stated) | 124% (inactive)
Cn1ccc2cc3c(cc21)CCN3C(=O)Nc1cccnc1 | 88% (inactive)
OC[C@H]1O[C@@H](n2cnc3cncnc32)[C@H](O)[C@@H]1O | 82.1% (inactive)
C[N+]1(C)CCN(c2ccccc2)CC1 | 89.3% (inactive)
OC[C@H]1O[C@@H](n2cnc3c(NC4CCCCC4)ncnc32)[C@H](O)[C@@H]1O | 104% (inactive)
CN1C(C(=O)Nc2ccccn2)=C(O)c2ccccc2S1(=O)=O | 110% (inactive)
O=C(O)c1cc(=O)c2ccccc2[nH]1 | 97.4% (inactive)
NCc1cc(=O)[nH]o1 | 110% (inactive)
OCCN1CCN(CCCN2c3ccccc3Sc3ccc(C(F)(F)F)cc32)CC1 | 116% (inactive)
C[C@]12CCC(=O)C=C1CC[C@@H]1[C@@H]2CC[C@@]2(C)[C@H]1CC[C@]2(O)C(=O)CO | 106% (inactive)
O=C(c1ccc(OCCN2CCCCC2)cc1)c1c(-c2ccc(O)cc2)sc2cc(O)ccc12 | 87.4% (inactive)
Nc1nc2c(nc(Br)n2C2OC3COP(=O)(O)O[C@@H]3C2O)c(=O)[nH]1 (some centres not stated) | 110% (inactive)
N=c1c[n+](N2CCOCC2)[n-]o1 | 110% (inactive)
Nc1ncnc2c1nc(Sc1ccc(Cl)cc1)n2C1OC2COP(=O)(O)O[C@@H]2[C@@H]1O (some centres not stated) | 88.9% (inactive)
CC(/C=C/c1cccc(Oc2ccc(F)cc2)c1)N(O)C(N)=O (configuration not stated) | 100% (inactive)
Cc1cccc(C)c1NC(=O)C[N+](C)(C)C | 87.6% (inactive)

Structure (SMILES) | vessel count % control
CNCC(O)c1ccc(O)c(O)c1 (configuration not stated) | 123% (inactive)
CCN(CCCl)Cc1ccccc1Br | 99.8% (inactive)
O=c1cc(-c2ccc(O)cc2)oc2cc(O)cc(O)c12 | 87.4% (inactive)
COc1cc(/C=C(\C#N)C(=O)c2ccc(O)c(O)c2)cc(I)c1O | 94.3% (inactive)
O=C(O)CC1CCCc2ccccc2C1O (configuration not stated) | 137% (inactive)
C#C[C@]1(O)CC[C@H]2[C@@H]3CCC4=Cc5oncc5CC4(C)[C@H]3CCC21C (some centres not stated) | 118% (inactive)
NC(CCCCCP(=O)(O)O)C(=O)O (configuration not stated) | 113% (inactive)
Nc1cc(Cl)c(NC2=NCCN2)c(Cl)c1 | 114% (inactive)
CN(C)CCN(Cc1cccs1)c1ccccn1 | 110% (inactive)
C[C@@H]1O[C@@H](O[C@H]2C[C@@H](O)[C@]3(CO)[C@@H]4C(CC[C@]3(O)C2)[C@@]2(O)CC[C@H](C3COC(=O)C3)[C@@]2(C)C[C@H]4O)[C@H](O)[C@H](O)[C@H]1O (some centres not stated) | 104% (inactive)
CCN(CC)C(=O)N[C@@H]1C[C@@H]2c3cccc4[nH]cc(c34)C[C@H]2N(C)C1 | 111% (inactive)
CCN(CC)C(=S)SSC(=S)N(CC)CC | 0% (inactive)
CN=c1nc(-c2ccccc2)n(-c2ccccc2)s1 | 125% (inactive)
N=C(N)c1ccc(N)cc1 | 114% (inactive)
COc1ccccc1NC(=O)Nc1nc(-c2cccnc2)nc2ccccc12 | 85.6% (inactive)
CNc1ccc2oc(C[C@H]3O[C@@]4(CC[C@H]3C)O[C@H]([C@H](C)C(=O)c3ccc[nH]3)[C@H](C)C[C@H]4C)nc2c1C(=O)O | 0% (inactive)
CN(C)CCCO[C@@H]1[C@H]2OC(C)(C)O[C@H]2O[C@@H]1C(O)CO (some centres not stated) | 88% (inactive)
Nc1ncnc2c1ncn2C1CCCC1 | 81.5% (inactive)
C=CC(N)CCC(=O)O (configuration not stated) | 85.7% (inactive)
CC(C)(C)c1ccc(C(O)CCCN2CCC(C(O)(c3ccccc3)c3ccccc3)CC2)cc1 (configuration not stated) | 99.8% (inactive)
Cc1cc(NC(=O)Nc2ccc3c(ccn3C)c2)sn1 | 112% (inactive)
CC1=C[C@@H]2c3cccc4[nH]cc(c34)C[C@H]2N(C)C1 | 81.3% (inactive)
